In PubChem BioAssay (NCI):
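Five compound concentrations were applied to cells in 96-well plates for 48 hours; endpoints were derived by simple linear interpolation of the resulting dose-response curve. At the GI50, growth is halved. The concentration for full growth arrest is given as TGI.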

What was measured:
Assay in all cases: growth of human tumour cells (NCI), 48 h
[1] = system: HCT-15 colon
[2] = system: RPMI-8226 leukemia
[3] = system: U251 CNS
[4] = system: A498 renal
[5] = system: SNB-78 CNS
[6] = system: SK-MEL-28 melanoma
[7] = system: HOP-62 NSCLC
[8] = system: SN12C renal
[9] = system: DMS 273 small cell lung
[10] = system: SK-MEL-2 melanoma

O=C(Nc1nccs1)c1cc(C2=CC=CC([N+](=O)[O-])C=C2)nc(=S)[nH]1 (stereo unspecified)
TGI [1]: > 100 µM
TGI [2]: > 100 µM
TGI [3]: > 100 µM
TGI [4]: > 100 µM
TGI [5]: > 100 µM
TGI [6]: > 100 µM
TGI [7]: > 100 µM
TGI [8]: > 100 µM
TGI [9]: > 100 µM
TGI [10]: > 100 µM

COC1=C(C(=O)OC(C)(C)C)[C@]2(C)C(C(=O)OC(C)(C)C)C(OC)=C(C(=O)OC(C)(C)C)[C@]2(C)C1C(=O)OC(C)(C)C (stereo partly specified)
TGI [1]: > 100 µM
TGI [2]: > 100 µM
TGI [3]: > 100 µM
TGI [4]: > 100 µM
TGI [5]: > 100 µM
TGI [7]: > 100 µM
TGI [8]: > 100 µM
TGI [9]: > 100 µM
TGI [10]: > 100 µM

COc1ccc(C=NC23CC4CC(CC(C4)C2)C3)cc1
TGI [1]: > 100 µM
TGI [2]: > 100 µM
TGI [3]: > 100 µM
TGI [4]: > 100 µM
TGI [5]: > 100 µM
TGI [6]: > 100 µM
TGI [7]: > 100 µM
TGI [8]: > 100 µM
TGI [9]: > 10 µM
TGI [10]: > 100 µM

Cc1cccc(C)c1NC(=O)C(=O)CC(=O)CO
TGI [1]: > 100 µM
TGI [2]: > 100 µM
TGI [3]: > 100 µM
TGI [4]: > 100 µM
TGI [5]: > 100 µM
TGI [6]: > 100 µM
TGI [7]: > 100 µM
TGI [8]: > 100 µM
TGI [9]: > 100 µM
TGI [10]: > 100 µM

CCN(CC)C(=S)N/N=C(\C)c1ccccc1O
TGI [1]: > 100 µM
TGI [2]: > 100 µM
TGI [3]: 89 µM
TGI [4]: > 100 µM
TGI [5]: > 100 µM
TGI [6]: > 100 µM
TGI [7]: > 100 µM
TGI [8]: > 100 µM
TGI [9]: > 100 µM
TGI [10]: 80.7 µM

CC(=O)Oc1cccc2c1C(=O)C(Br)(Br)CCC2
TGI [1]: 29.4 µM
TGI [2]: 7.34 µM
TGI [3]: 23.7 µM
TGI [4]: 33.4 µM
TGI [5]: 33.8 µM
TGI [6]: 25.7 µM
TGI [7]: 22 µM
TGI [8]: 19.7 µM
TGI [9]: 14.9 µM
TGI [10]: 21.5 µM

O[C@]12CCCC[C@H]1CCC2
TGI [1]: > 100 µM
TGI [2]: > 100 µM
TGI [3]: > 100 µM
TGI [4]: > 100 µM
TGI [5]: > 100 µM
TGI [6]: > 100 µM
TGI [7]: > 100 µM
TGI [8]: > 100 µM
TGI [9]: > 100 µM
TGI [10]: > 100 µM

CC(=O)O[C@@H]1CC(C)C2CC2C2=C(C(O)OC2O)[C@@H]1C(C)CCC=C(C)C (stereo partly specified)
TGI [1]: 49.5 µM
TGI [2]: 59.1 µM
TGI [3]: 41.1 µM
TGI [4]: > 100 µM
TGI [5]: 90.2 µM
TGI [6]: > 100 µM
TGI [7]: 56 µM
TGI [8]: 35.9 µM
TGI [9]: 45.3 µM
TGI [10]: > 100 µM

CCCCC(=O)[O-].N.N.N.N.N.[Co+3].[O-][Cl+3]([O-])([O-])[O-]
GI50 [1]: > 100 µM
TGI [1]: > 100 µM
GI50 [2]: > 100 µM
TGI [2]: > 100 µM
GI50 [3]: > 100 µM
TGI [3]: > 100 µM
GI50 [4]: > 100 µM
TGI [4]: > 100 µM
GI50 [5]: > 100 µM
TGI [5]: > 100 µM
GI50 [6]: > 100 µM
TGI [6]: > 100 µM
GI50 [7]: > 100 µM
TGI [7]: > 100 µM
GI50 [8]: > 100 µM
TGI [8]: > 100 µM
GI50 [9]: > 100 µM
TGI [9]: > 100 µM
GI50 [10]: > 100 µM
TGI [10]: > 100 µM

CN(C)c1ccc(/C=C2\N=C(c3ccc(N)cc3)OC2=O)cc1
TGI [1]: > 100 µM
TGI [2]: > 100 µM
TGI [3]: > 100 µM
TGI [4]: > 100 µM
TGI [5]: > 100 µM
TGI [6]: > 100 µM
TGI [7]: > 100 µM
TGI [8]: > 100 µM
TGI [9]: > 100 µM
TGI [10]: > 100 µM

CC[O-].CC[O-].O=Nc1ccc2cc([O-])ccc2c1.O=Nc1ccc2cc([O-])ccc2c1.[Ti+4]
GI50 [2]: 1.51 µM
TGI [2]: 4.6 µM
GI50 [3]: 1.77 µM
TGI [3]: 3.48 µM
GI50 [4]: 9.01 µM
TGI [4]: 27.3 µM
GI50 [5]: 2.79 µM
GI50 [6]: 1.81 µM
TGI [6]: 3.4 µM
GI50 [7]: 3.3 µM
TGI [7]: 10.5 µM
GI50 [8]: 1.74 µM
TGI [8]: 3.16 µM
GI50 [9]: 1.68 µM
TGI [9]: 3.11 µM
GI50 [10]: 2.13 µM
TGI [10]: 4.75 µM

Cc1c(C(=O)CC(=O)C(=O)Nc2cccc(C(F)(F)F)c2)[n+](=O)c2ccccc2n1[O-]
TGI [1]: 10.3 µM
TGI [2]: 11.7 µM
TGI [3]: 11 µM
TGI [4]: 35.8 µM
TGI [5]: 25.2 µM
TGI [6]: 27.2 µM
TGI [7]: 57.6 µM
TGI [8]: 11 µM
TGI [9]: 10.3 µM
TGI [10]: 18.5 µM
